Measurements from ChEMBL document CHEMBL3301448, “MMV Malaria Box screening against Toxoplasma gondii and Entamoeba histolytica”.

Key:
Entamoeba histolytica = assay: MMV: Primary screening was performed with each compound at a 30 uM final concentration and in triplicate in sealed 96-well polystyrene microtiter plates. Parasite inocula (100 ul) comprising 20000 parasites/ml were added to each well and grown at 37 degrees C in a humidified atmosphere of 5% CO2 for 72 h. Positive controls consisted of metronidazole at 1 mg/ml. The growth of E. histolytica trophozoites in each well was determined microscopically by measuring the diameters of the confluent cells in drug-containing wells relative to those in the nega- tive-control wells.; assay type: functional, organism-based
Toxoplasma gondii = assay: MMV: A total of 100ul of inoculum was added to each well (parasite/cell ratio, ~10:1; final volume, 200 ul). Six hours after inoculation, nonadherent parasites were removed, and 100 ul of complete DMEM (1% penicillin-streptomycin, 3% FBS) supplemented with inhibitors at different concentrations (2-fold serial dilutions starting from 30 uM) was added to all except the negative-control wells. Positive controls, consisting of pyrimethamine (PYR) and sulfadiazine (SDZ) (20-mg/ml stocks in DMSO), were tested at a 2mg/ml final concentration. Each test was performed in triplicate.; assay type: functional, organism-based; details: 6 h

For `O=C(Nc1nc(-c2ccccn2)cs1)c1ccccc1Br`, the IC50 (Entamoeba histolytica) was greater than 30 µM and the IC50 (Toxoplasma gondii) was greater than 30 µM.

`COc1ccc(-c2cc3c(nn2)-c2ccccc2C3=O)cc1` was tested, and the IC50 (Entamoeba histolytica) was greater than 30 µM and the IC50 (Toxoplasma gondii) was greater than 30 µM.

In the case of `Cc1cc(C)c2nc(N3CCC(C(=O)NCCCN4CCC(N5CCCCC5)CC4)CC3)sc2c1`, the IC50 (Entamoeba histolytica) is reported as greater than 30 µM and the IC50 (Toxoplasma gondii) is reported as greater than 30 µM.

With `COc1ccc(C(=O)Nc2ccc(Cl)cc2C(=O)Nc2ccncc2)cc1` the IC50 (Entamoeba histolytica) was greater than 30 µM and the IC50 (Toxoplasma gondii) was greater than 30 µM.

Compound `CCOC(=O)C1(Cc2ccccc2)CCN(Cc2cccc(OC)c2O)CC1` has an IC50 (Entamoeba histolytica) greater than 30 µM and an IC50 (Toxoplasma gondii) greater than 30 µM.

`OC(CNC1CCCCC1)Cn1c2ccc(I)cc2c2cc(I)ccc21` (centres undefined) gave an IC50 (Entamoeba histolytica) greater than 30 µM and an IC50 (Toxoplasma gondii) greater than 30 µM.

With `CN(C)c1ccc(N2C(N)=NC(N)=NC2(C)C)cc1` the IC50 (Entamoeba histolytica) was greater than 30 µM and the IC50 (Toxoplasma gondii) was 28.9 µM.

With `CCCCc1ccc(NS(=O)(=O)c2cc3c4c(c2)CCN4C(=O)CC3)cc1` the IC50 (Entamoeba histolytica) was greater than 30 µM and the IC50 (Toxoplasma gondii) was greater than 30 µM.

`CCOC(=O)c1c(C)n(-c2ccc(Cl)cc2)c2ccc(OC(=O)C=Cc3ccccc3)cc12` gave an IC50 (Entamoeba histolytica) of 10.7 µM and an IC50 (Toxoplasma gondii) greater than 30 µM.

Work on `CSC1=NC(=Nc2c(C)cccc2C)C2(CCC(C(C)(C)C)CC2)N1c1ccc(Cl)cc1` (centres undefined) yielded an IC50 (Entamoeba histolytica) greater than 30 µM and an IC50 (Toxoplasma gondii) greater than 30 µM.

Compound `Cc1cc(Nc2ccc(C)c(Cl)c2)n2nc(C(F)(F)F)nc2n1` has an IC50 (Entamoeba histolytica) greater than 30 µM and an IC50 (Toxoplasma gondii) greater than 30 µM.

`CCOc1cc2c(cc1OCC)C(c1cc(Cl)ccc1O)NCC2` (centres undefined) showed an IC50 (Entamoeba histolytica) greater than 30 µM and an IC50 (Toxoplasma gondii) greater than 30 µM.

Work on `CCCCCCOC(=O)C1=C(C)NC(=O)NC1c1ccccc1F` (centres undefined) yielded an IC50 (Entamoeba histolytica) greater than 30 µM and an IC50 (Toxoplasma gondii) greater than 30 µM.

For `CCCCCCc1cc2cc(-c3csc(C=Cc4ccccc4)n3)c(=O)oc2cc1O`, the IC50 (Entamoeba histolytica) was greater than 30 µM and the IC50 (Toxoplasma gondii) was greater than 30 µM.

In the case of `COc1cc(-c2nc(-c3ccccc3)c(-c3ccccc3)[nH]2)cc(OC)c1O`, the IC50 (Entamoeba histolytica) is reported as greater than 30 µM and the IC50 (Toxoplasma gondii) is reported as greater than 30 µM.

`COc1ccc2nc(C)cc(Nc3cccc(O)c3)c2c1` was tested, and the IC50 (Entamoeba histolytica) was greater than 30 µM and the IC50 (Toxoplasma gondii) was greater than 30 µM.

In the case of `CCC(=O)Nc1nnc(Cc2ccc(OC)c(OC)c2)s1`, the IC50 (Entamoeba histolytica) is reported as greater than 30 µM and the IC50 (Toxoplasma gondii) is reported as greater than 30 µM.

For `Cc1ccc2c(C)nc(Nc3nc(C)cc(-c4ccccc4)n3)nc2c1`, the IC50 (Entamoeba histolytica) was greater than 30 µM and the IC50 (Toxoplasma gondii) was greater than 30 µM.

Work on `Clc1cc(Br)ccc1-c1ccc(CNCC2CCNCC2)o1` yielded an IC50 (Entamoeba histolytica) greater than 30 µM and an IC50 (Toxoplasma gondii) greater than 30 µM.

For `CCN(CC)CCNc1ncnc2c1[nH]c1ccc(Br)cc12`, the IC50 (Entamoeba histolytica) was greater than 30 µM and the IC50 (Toxoplasma gondii) was greater than 30 µM.

`Cc1cccc(Nc2nc(N)c3ccccc3n2)c1` showed an IC50 (Entamoeba histolytica) greater than 30 µM and an IC50 (Toxoplasma gondii) greater than 30 µM.

`O=C(Nc1ccsc1C(=O)NC1CCCCC1)c1ccc(F)cc1` showed an IC50 (Entamoeba histolytica) greater than 30 µM and an IC50 (Toxoplasma gondii) greater than 30 µM.

`CC(=O)Nc1nnc(SCc2c(C)cc(C(C)(C)C)cc2C)s1` gave an IC50 (Entamoeba histolytica) greater than 30 µM and an IC50 (Toxoplasma gondii) greater than 30 µM.

`COc1cc2cc(C(=O)Nc3ccccc3)c(N)nc2cc1OC` was tested, and the IC50 (Entamoeba histolytica) was greater than 30 µM and the IC50 (Toxoplasma gondii) was greater than 30 µM.

Work on `CC(C)(C)c1ccc(C(=O)Nc2nc3ccccc3s2)cc1` yielded an IC50 (Entamoeba histolytica) greater than 30 µM and an IC50 (Toxoplasma gondii) greater than 30 µM.

`O=C(NCCCN1CCC(N2CCCCC2)CC1)C1=Cc2cc(Br)ccc2OC1` was tested, and the IC50 (Entamoeba histolytica) was greater than 30 µM and the IC50 (Toxoplasma gondii) was greater than 30 µM.

`c1ccc(CNc2nc(Nc3ccccc3)nc3ccccc23)cc1` showed an IC50 (Entamoeba histolytica) greater than 30 µM and an IC50 (Toxoplasma gondii) greater than 30 µM.

Work on `Cc1c(C)n(Cc2ccc(F)cc2)c2ccc(C(=O)NCc3ccco3)cc12` yielded an IC50 (Entamoeba histolytica) greater than 30 µM and an IC50 (Toxoplasma gondii) greater than 30 µM.

Compound `Clc1ccc2c(N3CCCC3)ccnc2c1` has an IC50 (Entamoeba histolytica) greater than 30 µM and an IC50 (Toxoplasma gondii) of 1.49 µM.

`CCCCCCn1c(=N)n(CC(O)COc2cccc(C)c2)c2ccccc21` (centres undefined) gave an IC50 (Entamoeba histolytica) greater than 30 µM and an IC50 (Toxoplasma gondii) greater than 30 µM.

In the case of `COc1ccc(C(=O)C2CC2c2ccc(Cl)cc2)cc1` (centres undefined), the IC50 (Entamoeba histolytica) is reported as greater than 30 µM and the IC50 (Toxoplasma gondii) is reported as greater than 30 µM.

For `Cc1ccc(-c2nc3ccccc3o2)cc1NCc1cc(Cc2ccccc2)ccc1O`, the IC50 (Entamoeba histolytica) was greater than 30 µM and the IC50 (Toxoplasma gondii) was greater than 30 µM.

Compound `Cc1ccc(-c2cc3nc4c(c(O)n3n2)CCCC4)cc1` has an IC50 (Entamoeba histolytica) greater than 30 µM and an IC50 (Toxoplasma gondii) of 8.22 µM.

Work on `COCCn1c(C)nc2ccccc2c1=O` yielded an IC50 (Entamoeba histolytica) greater than 30 µM and an IC50 (Toxoplasma gondii) greater than 30 µM.

For `CC(C)(C)c1ccc(C(=O)Nc2c3c(nn2-c2cccc(Cl)c2)CSC3)cc1`, the IC50 (Entamoeba histolytica) was greater than 30 µM and the IC50 (Toxoplasma gondii) was greater than 30 µM.

`Cc1nc2ccccc2c(O)c1CC=C(Cl)Cl` showed an IC50 (Entamoeba histolytica) greater than 30 µM and an IC50 (Toxoplasma gondii) greater than 30 µM.

With `OC1=C2C(=Nc3ccccc3SC2c2ccc(Br)cc2)c2ccccc21` (centres undefined) the IC50 (Entamoeba histolytica) was greater than 30 µM and the IC50 (Toxoplasma gondii) was greater than 30 µM.
